Results as given in patent publication US20170298051A1, “ACTIVATOR OF ADIPONECTIN RECEPTOR” (THE UNIVERSITY OF TOKYO, priority 2013, published 2017).

Assays:
[1] = biological target: T1, AdipoR1 (Mus musculus, UniProt Q91VH1); experiment: Measurement of AMPK phosphorylation ability (Assay 1), differentiated C2C12 cells, Western blotting; format: cell-based; settings: 10 μM, 10 minutes
T1 construct: C2C12 cells (ATCC; CRL-1772, medium; host or cells: differentiated C2C12
T1 sequence (Q91VH1 1-375): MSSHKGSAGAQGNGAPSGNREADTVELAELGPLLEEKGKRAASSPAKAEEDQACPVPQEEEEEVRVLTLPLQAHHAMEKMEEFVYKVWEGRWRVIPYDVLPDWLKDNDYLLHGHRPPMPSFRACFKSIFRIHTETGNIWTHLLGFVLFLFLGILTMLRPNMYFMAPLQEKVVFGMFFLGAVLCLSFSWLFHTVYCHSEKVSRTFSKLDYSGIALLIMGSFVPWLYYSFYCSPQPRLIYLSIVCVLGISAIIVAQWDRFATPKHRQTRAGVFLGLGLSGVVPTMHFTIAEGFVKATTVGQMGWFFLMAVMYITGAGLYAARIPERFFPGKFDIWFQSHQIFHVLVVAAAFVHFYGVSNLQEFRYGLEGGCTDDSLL
Description: The AMPK phosphorylation ability of the respective compounds according to the present invention was measured by using differentiated C2C12 cells or HEK 293T cells.
C2C12 cells (ATCC; CRL-1772, medium; DMEM, 10% FBS) were cultured in a 12- or 24-well plate until they reached 100% confluency (37° C., 5% CO2).
The medium was changed to 2.5% Horse Serum (HS) and differentiation was started. The medium (DMEM, 2.5% HS) was replaced every three days.
After starvation, a test compound listed in Table 12 (concentration: 10 μM) was added thereto, and after 10 minutes, the medium was discarded and the plate was frozen with liquid nitrogen.
To the 12- or 24-well cell plate which had been frozen was added 100 or 150 μL of Cell lysis buffer pH 7.4 (50 mM HEPES (pH 7.4), 2 mM sodium orthovanadate, 10 mM sodium pyrophosphate, 10 mM NaF, 2 mM EDTA, 2 mM EGTA, 0.1% (v/v) NP-40, 0.2 mM PMSF), and the cells were scraped off with a cell scraper, suspended and transferred into a micro centrifugal tube. And then, the cells were ultrasonically crushed (1 second×3 times) with a sonicator. Centrifugation was performed at 4° C. at 15,000 rpm for 15 minutes, and the supernatant was recovered into a new tube.
To 100 μL of the supernatant was added 25 μL of 5× sample buffer (280 mM Tris-HCl (pH 6.9), 40% glycerol, 10% (3-mercaptoethanol, 13% SDS, a small amount of bromophenol blue) and mixed together. The rest of the supernatant was used for protein quantification, and the protein concentrations were uniformed by adding 1× sample buffer depending on the concentration of each sample.
An electrophoresis chamber was filled with 1× SDS buffer (25 mM Tris-HCl, 250 mM glycine, 0.1% SDS), and the sample was applied to a well of polyacrylamide gel. Electrophoresis was performed until the bromophenol blue in the sample reached to the bottom of the gel.
A filter paper was soaked in 1× Transfer buffer sufficiently, above which the PVDF membrane and the gel after electrophoresis were stacked in this order, and thereabove a filter paper which had been soaked in 1× Transfer buffer sufficiently was further stacked, from which an air was removed and the resultant was set in semi-dry type transfer apparatus and transferred (7V, 35 minutes).
An unnecessary portion of the blotted membrane was cutoff, and the rest was immediately soaked in blocking buffer (5% skimmed milk in Rinse buffer), and shaken at room temperature at 40 rpm for 3 hours.
After blocking, the membrane was transferred into Rinse buffer, and washed at room temperature for 10 minutes while shaking. The membrane was soaked in a primary antibody solution (AMPK alpha Antibody (Cell signaling; #2532) 1/1,000 in Rinse buffer, Phospho-AMPK alpha (Thr172) (40H9) antibody (Cell signaling; #2535) 1/1,000 in Rinse buffer), and shaken at 4° C. at 40 rpm overnight.
The membrane was soaked in a secondary antibody solution (goat anti-rabbit IgG-HRP Antibody (Santa Cruz; sc-2030) 1/2,000 in Rinse buffer), and shaken at room temperature at 40 rpm for 1 hour.
After the membrane was washed for 45 minutes in the same way as after the primary antibody reaction, the membrane was soaked in a chemiluminescent reaction solution (ECL Western Blotting Detection Reagents, GE Healthcare) for about 1 minute. An excess of the reaction solution was removed, and then the membranes were arranged on a transparent film and sandwiched with it, with which an X-ray film was exposed in a darkroom (for about several seconds to 60 seconds) to develop the film.
The X-ray film was scanned to take the image, for which the band was measured by using the image analysis software “Image J” to determine the respective amounts of pAMPK and AMPK.

[2] = test system: HF diet-induced obese mice; experiment: Oral glucose tolerance test and insulin tolerance in HF diet-induced obese mice; format: in vivo; settings: WT mice on HF diet, oral 50 mg/kg, 10 days
Description: The original Adipor1^+/−/Adipor2^+/− mice (C57BL/6 and 129/Sv mixed background)^a were backcrossed with C57B1/6 mice more than seven times. All experiments in this study were conducted on male littermates.
Mice were 6-10 week of age at the time of the experiment. They were housed in cages and maintained on a 12 hr light-dark cycle.
Plasma glucose levels were determined by using a glucose B-test (Wako Pure Chemical Industries). Plasma insulin was measured with an insulin immunoassay (Shibayagi). Plasma NEFAs (Wako Pure Chemical Industries) were assayed by enzymatic methods.
The oral glucose tolerance test (OGTT) and insulin tolerance test (ITT) were conducted as previously described^a,b with slight modifications. The areas of the glucose and insulin curves were calculated by multiplying the cumulative mean height of the glucose values (1 mg/ml=1 cm) and insulin values (1 ng/ml=1 cm), respectively, by time (60 min=1 cm)^c,a. The insulin resistance index was calculated from the product of the areas of glucose and insulin×10^−2 in the glucose tolerance test. The results are expressed as the percentage of the value respect to control littermates.

pAMPK/AMPK (%) [1]: 84.33%
SMILES: O=C(COc1ccc(C(=O)c2ccccc2)cc1)NC1CCN(Cc2ccccc2)CC1 [Compound 73, 2-(4-benzoyl-phenoxy)-N-(1-benzylpiperidin-4-yl)acetamide]
fasting plasma glucose and insulin levels, glucose and insulin responses during OGTT [2]: significant decrease
insulin sensitivity [2]: improved insulin sensitivity
